Experimental data taken from paper PMC12028158, “Synthesis and In Vitro Evaluation of the Anticancer Effect of Novel Phosphonium Vindoline Derivatives” (International Journal of Molecular Sciences, 2025).
Like-named read-outs stand apart in the source and are kept apart here.

Key:
Type in all cases: cell-based
PC-3 = test: NCI60 one-dose screen; conditions: Homo sapiens
HL-60(TB) = test: NCI60 one-dose screen; conditions: Homo sapiens
RXF 393 = test: NCI60 one-dose screen; conditions: Homo sapiens
BT-549 [1] = test: NCI60 one-dose screen; conditions: Homo sapiens
LOX IMVI = test: NCI60 one-dose screen; conditions: Homo sapiens, read-out: Growth percent
CAKI-1 [2] = test: NCI60 one-dose screen; conditions: Homo sapiens
HOP-62 = test: NCI60 one-dose screen; conditions: Homo sapiens
MDA-MB-468 = test: NCI60 one-dose screen; conditions: Homo sapiens
HCT-116 = test: NCI60 one-dose screen; conditions: Homo sapiens
[3] = tested on: 60 human tumor cell lines (NCI60); test: NCI60 one-dose screen, overall mean; conditions: for activity at 10 µM: Homo sapiens, read-out: Mean growth percent
EKVX = test: NCI60 one-dose screen; conditions: Homo sapiens, read-out: Growth percent
ACHN = test: NCI60 one-dose screen; conditions: Homo sapiens, read-out: Growth percent
OVCAR-3 = test: NCI60 one-dose screen; conditions: Homo sapiens
HT29 [4] = test: NCI60 one-dose screen; conditions: Homo sapiens
HCT-15 = test: NCI60 one-dose screen; conditions: Homo sapiens
DU-145 [5] = test: NCI60 one-dose screen; conditions: Homo sapiens
MDA-MB-231/ATCC = test: NCI60 one-dose screen; conditions: Homo sapiens, MDA-MB-231, read-out: Growth percent
NCI/ADR-RES = test: NCI60 one-dose screen; conditions: Homo sapiens, read-out: Growth percent
NCI-H226 [6] = test: NCI60 one-dose screen; conditions: Homo sapiens
U251 = test: NCI60 one-dose screen; conditions: Homo sapiens
UO-31 = test: NCI60 one-dose screen; conditions: Homo sapiens, UO-31, read-out: Growth percent
T-47D = test: NCI60 one-dose screen; conditions: Homo sapiens, T47D, read-out: Growth percent
A498 [7] = test: NCI60 one-dose screen; conditions: Homo sapiens
OVCAR-5 [8] = test: NCI60 one-dose screen; conditions: Homo sapiens, OVCAR-5, read-out: Growth percent
MOLT-4 = test: NCI60 five-dose screen; conditions: Homo sapiens; MOLT-4, Leukemia, five-dose; read-out: GI50
DU-145 [9] = test: NCI60 five-dose screen; conditions: Homo sapiens; DU-145, Prostate Cancer, five-dose; read-out: GI50
HOP-92 = test: NCI60 five-dose screen; conditions: Homo sapiens; HOP-92, Non-small Cell Lung Cancer, five-dose; read-out: GI50
NCI-H460 = test: NCI60 five-dose screen; conditions: Homo sapiens; NCI-H460, Non-small Cell Lung Cancer, five-dose; read-out: GI50
HS 578T = test: NCI60 five-dose screen; conditions: Homo sapiens; HS 578T, Breast Cancer, five-dose; read-out: GI50
COLO 205 = test: NCI60 five-dose screen; conditions: Homo sapiens, read-out: GI50
Breast Cancer panel = test: NCI60 five-dose screen, panel mean; conditions: Homo sapiens; mean over Breast Cancer panel; read-out: Mean GI50
SW-620 = test: NCI60 five-dose screen; conditions: Homo sapiens; SW-620, Colon Cancer, five-dose; read-out: GI50
786-0 = test: NCI60 five-dose screen; conditions: Homo sapiens; 786-0, Renal Cancer, five-dose; read-out: GI50
RPMI-8226 = test: NCI60 five-dose screen; conditions: Homo sapiens; RPMI-8226, Leukemia, five-dose; read-out: GI50
UACC-62 = test: NCI60 five-dose screen; conditions: Homo sapiens; UACC-62, Melanoma, five-dose; read-out: GI50
HCC-2998 = test: NCI60 five-dose screen; conditions: Homo sapiens; HCC-2998, Colon Cancer, five-dose; read-out: GI50
HT29 [10] = test: NCI60 five-dose screen; conditions: Homo sapiens, HT-29; HT29, Colon Cancer, five-dose; read-out: GI50
OVCAR-5 [11] = test: NCI60 five-dose screen; conditions: Homo sapiens; OVCAR-5, Ovarian Cancer, five-dose; read-out: GI50
NCI-H226 [12] = test: NCI60 five-dose screen; conditions: Homo sapiens; NCI-H226, Non-small Cell Lung Cancer, five-dose; read-out: GI50
CCRF-CEM = test: NCI60 five-dose screen; conditions: Homo sapiens, Leukemia, five-dose, read-out: GI50
BT-549 [13] = test: NCI60 five-dose screen; conditions: Homo sapiens; BT-549, Breast Cancer, five-dose; read-out: GI50
OVCAR-4 = test: NCI60 five-dose screen; conditions: Homo sapiens; OVCAR-4, Ovarian Cancer, five-dose; read-out: GI50
CAKI-1 [14] = test: NCI60 five-dose screen; conditions: Homo sapiens; CAKI-1, Renal Cancer, five-dose; read-out: GI50
CNS Cancer panel = test: NCI60 five-dose screen, panel mean; conditions: Homo sapiens; mean over CNS Cancer panel; read-out: Mean GI50
A498 [15] = test: NCI60 five-dose screen; conditions: Homo sapiens; A498, Renal Cancer, five-dose; read-out: GI50
[16] = mean over 60 cell lines, 10 μM, one-dose

`CCC12C=CCN3CC[C@@]4(c5ccc(OC)cc5N(C)[C@H]4[C@@](O)(C(=O)OC)[C@@H]1OC(C)=O)[C@@H]32` (some centres unmarked) [compound 2, vindoline] was tested, and the activity at 10 µM (PC-3; PC-3, read-out: Growth percent) was 88.3%, the activity at 10 µM (HL-60(TB); HL-60, read-out: Growth percent) was 104% and the activity at 10 µM (RXF 393; RXF 393, read-out: Growth percent) was 104%. The activity at 10 µM (BT-549 [1]; BT-549, read-out: Growth percent) was 114%, the activity at 10 µM (LOX IMVI) was 99.4% and the activity at 10 µM (CAKI-1 [2]; CAKI-1, read-out: Growth percent) was 97.5%. The activity at 10 µM (HOP-62; HOP-62, read-out: Growth percent) was 92.2%, the activity at 10 µM (MDA-MB-468; MDA-MB-468, read-out: Growth percent) was 102% and the activity at 10 µM (HCT-116; HCT-116, read-out: Growth percent) was 104%. The activity at 10 µM ([3]; 60 cell) was 100%, the activity at 10 µM (EKVX) was 102% and the activity at 10 µM (ACHN) was 101%. It also gave an activity at 10 µM (OVCAR-3; OVCAR-3, read-out: Growth percent) of 112%, an activity at 10 µM (HT29 [4]; HT-29, read-out: Growth percent) of 98.5% and an activity at 10 µM (HCT-15; HCT-15, read-out: Growth percent) of 99%. For the same compound, the activity at 10 µM (DU-145 [5]; DU-145, read-out: Growth percent) was 107%, the activity at 10 µM (MDA-MB-231/ATCC) was 97.7% and the activity at 10 µM (NCI/ADR-RES) was 110%. It also gave an activity at 10 µM (NCI-H226 [6]; NCI-H226, read-out: Growth percent) of 104%, an activity at 10 µM (U251; U-251, read-out: Growth percent) of 99.4% and an activity at 10 µM (UO-31) of 83.9%. For the same compound, the activity at 10 µM (T-47D) was 95.7%, the activity at 10 µM (A498 [7]; A498, read-out: Growth percent) was 99.6% and the activity at 10 µM (OVCAR-5 [8]) was 91.2%.

With `CC[C@]12C=CCN3CC[C@@]4(c5ccc(OC)cc5N(C)[C@H]4[C@@](O)(C(=O)OC)[C@@H]1OC(=O)CCC[P+](c1cc(C)c(OC)c(C)c1)(c1cc(C)c(OC)c(C)c1)c1cc(C)c(OC)c(C)c1)[C@@H]32` [9e] the activity at 10 µM (PC-3; PC-3, 10 μM, one-dose, read-out: Growth percent) was -97.7%, the activity at 10 µM (HL-60(TB); HL-60(TB), 10 μM, one-dose, read-out: Growth percent) was -97.2% and the GI50 (MOLT-4) was 0.164 µM. For the same compound, the activity at 10 µM (RXF 393; RXF 393, 10 μM, one-dose, read-out: Growth percent) was -98.6%, the GI50 (DU-145 [9]) was 0.3 µM and the GI50 (HOP-92) was 0.201 µM. It also gave a GI50 (NCI-H460) of 0.229 µM, an activity at 10 µM (BT-549 [1]; BT-549, 10 μM, one-dose, read-out: Growth percent) of -98% and an activity at 10 µM (LOX IMVI; 10 μM, one-dose) of -96.8%. For the same compound, the GI50 (HS 578T) was 0.185 µM, the GI50 (COLO 205; COLO 205, COLO 205, Colon Cancer, five-dose) was 0.091 µM and the GI50 (COLO 205; COLO 205, colon cancer COLO-205, text) was < 0.1 µM. The GI50 (Breast Cancer panel) was 0.14 µM, the GI50 (SW-620) was 0.245 µM and the activity at 10 µM (CAKI-1 [2]; CAKI-1, 10 μM, one-dose, read-out: Growth percent) was -97%. The activity at 10 µM (HOP-62; HOP-62, 10 μM, one-dose, read-out: Growth percent) was -97.9%, the GI50 (786-0) was 0.239 µM and the activity at 10 µM (MDA-MB-468; MDA-MB-468, 10 μM, one-dose, read-out: Growth percent) was -99.4%. It also gave a GI50 (RPMI-8226) of 0.02 µM, a GI50 (UACC-62) of 0.16 µM and an activity at 10 µM (HCT-116; HCT-116, 10 μM, one-dose, read-out: Growth percent) of -93%. It also gave a GI50 (HCC-2998) of 0.195 µM, an activity at 10 µM [3, 16] of -97.1% and a Mean growth percent [3, 16] of −97.13%. For the same compound, the “average reduction / average cell death” value ([3]; one-dose, 10 µM, average over cell lines) was “more than 70%”, the activity at 10 µM (EKVX; 10 μM, one-dose) was -98.2% and the GI50 (HT29 [10]) was 0.151 µM. For the same compound, the activity at 10 µM (ACHN; 10 μM, one-dose) was -96.5%, the activity at 10 µM (OVCAR-3; OVCAR-3, 10 μM, one-dose, read-out: Growth percent) was -99% and the GI50 (OVCAR-5 [11]) was 0.339 µM. The GI50 (NCI-H226 [12]) was 0.23 µM, the GI50 (CCRF-CEM) was 0.114 µM and the activity at 10 µM (HT29 [4]; HT-29, HT29, 10 μM, one-dose, read-out: Growth percent) was -97.5%. It also gave a GI50 (BT-549 [13]) of 0.17 µM, an activity at 10 µM (HCT-15; HCT-15, 10 μM, one-dose, read-out: Growth percent) of -93.9% and an activity at 10 µM (DU-145 [5]; DU-145, 10 μM, one-dose, read-out: Growth percent) of -96.8%. For the same compound, the activity at 10 µM (NCI/ADR-RES; 10 μM, one-dose) was -87.2%, the GI50 (OVCAR-4) was 0.271 µM and the activity at 10 µM (NCI-H226 [6]; NCI-H226, 10 μM, one-dose, read-out: Growth percent) was -99.3%. For the same compound, the activity at 10 µM (U251; U-251, U251, 10 μM, one-dose, read-out: Growth percent) was -96.5%, the GI50 (CAKI-1 [14]) was 0.313 µM and the GI50 (CNS Cancer panel) was 0.18 µM. The activity at 10 µM (A498 [7]; A498, 10 μM, one-dose, read-out: Growth percent) was -98.9% and the GI50 (A498 [15]) was 0.314 µM.
